Data taken from paper PMC8023712, “Carboxylesterase Activities and Protein Expression in Rabbit and Pig Ocular Tissues” (Molecular Pharmaceutics, 2021).

Experiments:
[1] = test system: CES1 (rabbit ocular tissue homogenates); assay: DME hydrolysis in rabbit ocular tissue homogenates; settings: for DME hydrolysis rate: 5 μM DME
Experimental: (§1) The hydrolysis of DME was monitored with slight modifications using the published bioluminescence-based assay[13],[21] where recombinant firefly luciferase enzyme was used to detect the D-luciferin that formed in the reaction mixture. The DME hydrolysis reaction was done in white-coated 96-well plates (Thermo Scientific Sterilin Microtiter Plates). Tissue lysates (5 μg of protein) were preincubated in 0.1 M PBS, pH 6.5. The reaction was initiated by adding DME to a final concentration of 5 μM in a final volume of 200 μL. The hydrolysis of DME was allowed to proceed for 20 min at 37 °C. The formed D-luciferin was quantitated by an injection of 73 μL of the luciferase detection reagent [3 μg of rLuciferase, 50 nmol of ATP, and 50 nmol of MgCl2 in PBS], and the luminescence was measured immediately with a Victor^2 Microplate Reader (560 nm, 1 s). Serial 2-fold dilutions of D-luciferin in 0.1 M PBS, pH 6.5 were used to generate the standard curve (0.156–10 μM).
(§2) Inhibitors were tested at a final concentration range of 0.4–400 μM except for PMSF (0.3–2.5 mM).

[2] = test system: CES1 (pig ocular tissue homogenates); assay: DME hydrolysis in pig ocular tissue homogenates; settings: for DME hydrolysis rate: 5 μM DME
Experimental: as §1, §2

[3] = target: T1, CES1 (human liver homogenate) (Homo sapiens, UniProt P23141); assay: DME hydrolysis in human liver homogenate (positive control); type: in vitro ADME; settings: 5 μM DME
T1 construct: Homogenates for rat whole eye (covered by the license # ESAVI/8621/04.10.07/2017) and human liver; from tissue; host or cells: human liver homogenate (donated, Oulu University Hospital)
Source text: (§3) CES enzymes are localized in the endoplasmic reticulum,[2],[45] but some activity resides in the cytoplasm.[46] Therefore, to prevent possible losses during sample preparation, we used whole tissue homogenates to characterize CES expression and activity in ocular tissues. The homogenization of pooled ocular tissues in 1 × DPBS buffer (3:1 v/w) was done with a Dounce homogenizer (Thomas Scientific; Swedesboro, NJ) with 5–10 strokes, depending on the ocular tissue. Aqueous humor and vitreous were homogenized without adding buffer. Tissue homogenization buffer was supplemented with protease inhibitor cocktail without phenylmethylsulfonyl fluoride (PMSF), a known inhibitor of esterases.[47],[48] After homogenization, all samples were sonicated at 750 W (Vibra-Cell VCX50 and a four-element microtip probe; Sonics & Materials Inc., Newton, CT) using four pulses of 45 s with a cooling interval of 15 s. […]
(§4) The hydrolysis of DME was monitored with slight modifications using the published bioluminescence-based assay[13],[21] where recombinant firefly luciferase enzyme was used to detect the D-luciferin that formed in the reaction mixture. […] The formed D-luciferin was quantitated by an injection of 73 μL of the luciferase detection reagent [3 μg of rLuciferase, 50 nmol of ATP, and 50 nmol of MgCl2 in PBS], and the luminescence was measured immediately with a Victor^2 Microplate Reader (560 nm, 1 s).

[4] = test system: CES1 (rat whole eye homogenate); assay: DME hydrolysis in rat whole eye homogenate (positive control); type: in vitro ADME; settings: 5 μM DME
Source text: as §3, §4

[5] = test system: rhCES1; settings: read-out: Km literature data, DME; cited from earlier work

T1 sequence (P23141 18-567): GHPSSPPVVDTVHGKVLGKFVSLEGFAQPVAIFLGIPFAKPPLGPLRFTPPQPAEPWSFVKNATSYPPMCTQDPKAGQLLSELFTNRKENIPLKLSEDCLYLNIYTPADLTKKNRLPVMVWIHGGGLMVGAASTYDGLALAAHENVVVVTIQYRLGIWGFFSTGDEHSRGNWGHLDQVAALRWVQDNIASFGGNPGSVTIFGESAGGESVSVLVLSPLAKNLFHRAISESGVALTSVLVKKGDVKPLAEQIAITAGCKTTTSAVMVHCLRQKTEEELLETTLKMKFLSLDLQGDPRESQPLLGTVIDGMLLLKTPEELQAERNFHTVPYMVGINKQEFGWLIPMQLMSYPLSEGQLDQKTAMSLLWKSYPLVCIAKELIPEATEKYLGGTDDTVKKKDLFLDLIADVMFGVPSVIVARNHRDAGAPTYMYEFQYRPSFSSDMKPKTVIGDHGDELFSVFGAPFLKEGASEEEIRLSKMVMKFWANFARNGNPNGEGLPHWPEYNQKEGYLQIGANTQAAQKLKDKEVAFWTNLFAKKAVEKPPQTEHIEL

## COC(=O)[C@H]1CSC(c2nc3ccc(O)cc3s2)=N1 [DME, D-luciferin methyl ester]
[1]; rabbit RPE and retina
  DME hydrolysis rate: 0.1 to 0.5 nmol/min/mg
[1]; rabbit aqueous humor and vitreous
  DME hydrolysis rate: 0.5 to 1.0 nmol/min/mg
[1]; rabbit conjunctiva, cornea and choroid
  DME hydrolysis rate: ≥ 1 nmol/min/mg
[1]; read-out: Km (this study), DME hydrolysis in rabbit cornea
  Km: 2.5 ± 0.8 µM
[2]; pig RPE, aqueous humor and vitreous
  DME hydrolysis rate: 0.1 to 0.2 nmol/min/mg
[2]; pig conjunctiva, cornea and choroid
  DME hydrolysis rate: ≥ 1 nmol/min/mg
[2]; pig retina
  DME hydrolysis rate: 0.5 to 1 nmol/min/mg
[2]; read-out: Km (this study), DME hydrolysis in pig cornea
  Km: 2.7 ± 1.3 µM
[3]
  DME hydrolysis rate: 3.6 ± 0.7 nmol/min/mg
[4]
  DME hydrolysis rate: 2.6 ± 0.2 nmol/min/mg
[5]
  Km: ~5 µM
